Measured values as given in PubChem BioAssay AID248 (DTP/NCI, 2004).
Values joined by “and” are separate entries in the source; they are usually repeats but may differ in a detail not shown here. Equal values may be shown once. Toxic doses and inconclusive results are not listed.

System: L1210 leukemia ip in BDF1 mice, survival T/C
Assay: NCI In Vivo Anticancer Drug Screen. Data for tumor model L1210 Leukemia (intraperitoneal) in B6D2F1 (BDF1) mice
Settings: endpoint: mean survival time, higher = longer survival
Outline: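 Ratio derived from survival: compound-dosed mice over vehicle-dosed mice, all bearing a transplantable tumor.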

In the case of `Cc1ccc(C(=O)Nc2ncn(C3CC(O)C(CO)O3)c(=O)n2)cc1` (centres undefined), the T/C (dose: 6.25 mg/kg/injection, schedule: Q04DX003 (ip), vehicle: saline with Tween-80) is reported as 114 % of control, the T/C (dose: 12.5 mg/kg/injection, schedule: Q01DX003 (ip), vehicle: saline with Tween-80) is reported as 245 % of control and the T/C (dose: 12.5 mg/kg/injection, schedule: Q01DX005 (ip), vehicle: saline) is reported as 187 % of control. For the same molecule, the T/C (dose: 12.5 mg/kg/injection, schedule: Q04DX003 (ip), vehicle: saline with Tween-80) was 172 % of control, the T/C (dose: 25.0 mg/kg/injection, schedule: Q01DX003 (ip), vehicle: saline with Tween-80) was 152 % of control and the T/C (dose: 25.0 mg/kg/injection, schedule: Q04DX003 (ip), vehicle: saline with Tween-80) was 156 % of control and 185 % of control. For the same molecule, the T/C (dose: 50.0 mg/kg/injection, schedule: Q01DX003 (ip), vehicle: saline with Tween-80) was 111 % of control and the T/C (dose: 50.0 mg/kg/injection, schedule: Q01DX005 (ip), vehicle: saline) was 90 % of control.
In the case of `COc1ccc(-c2c(C)c(C)[nH]c(=O)c2C#N)c(OCc2ccccc2)c1OC`, the T/C (dose: 100.0 mg/kg/injection, schedule: Q01DX001 (ip), vehicle: saline) is reported as 101 % of control, the T/C (dose: 200.0 mg/kg/injection, schedule: Q01DX001 (ip), vehicle: saline) is reported as 101 % of control and the T/C (dose: 400.0 mg/kg/injection, schedule: Q01DX001 (ip), vehicle: saline) is reported as 93 % of control.
For `CN(C)P(=O)(N(C)C)N1CC1`, the T/C (dose: 0.75 mg/kg/injection, schedule: Q01DX009 (ip), vehicle: saline) was 98 % of control, the T/C (dose: 1.5 mg/kg/injection, schedule: Q01DX009 (ip), vehicle: saline) was 103 % of control and the T/C (dose: 3.7 mg/kg/injection, schedule: Q01DX009 (ip), vehicle: saline) was 101 % of control. The T/C (dose: 3.75 mg/kg/injection, schedule: Q01DX009 (ip), vehicle: saline) was 98 % of control, the T/C (dose: 7.5 mg/kg/injection, schedule: Q01DX009 (ip), vehicle: saline) was 113 % of control and 115 % of control and the T/C (dose: 15.0 mg/kg/injection, schedule: Q01DX009 (ip), vehicle: saline) was 120 % of control. The T/C (dose: 30.0 mg/kg/injection, schedule: Q01DX001 (ip), vehicle: saline) was 111 % of control and the T/C (dose: 30.0 mg/kg/injection, schedule: Q01DX009 (ip), vehicle: saline) was 173 % of control.
